Test results as given in patent US7691874B2, “Neuroprotective properties of dextrorotatory morphinans” (priority 2004, dated 2010).
Marks after values point to notes of the source that are not given here.

Assays:
cocaine-treated mice [1] = assay: Cocaine-induced hyperlocomotion; type: in vivo
Method in brief: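 Morphinans (15 and 30 mg/kg, i.p.) or dimemorfan (20 mg/kg, i.p.) given 30 minutes before cocaine (5 and 20 mg/kg, i.p.); treatments continued for 7 days. Locomotion scored as central activity (non-specific movement in box center) and marginal activity (circling).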

MPTP-treated mice [2] = assay: Striatal dopamine and metabolites (HPLC-EC) in MPTP-treated mice; settings: for Concentration DA in the striatum: mean ± S.E.M., 8 animals
Method: (§2) Each morphinan was administered 30 min prior to every injection of MPTP for last three days (from day 4th to day 7th). Animals were sacrificed 24 h after the last MPTP treatment.
Brains were rapidly removed and cut into 1 mm coronal sections on ice. The striatum was punched using a fine pasteur pipette (3, 21, 22), and stored at −70° C. DA and its metabolites, 3,4-dihydroxyphenylacetic acid (DOPAC) and homovanilic acid (HVA) were measured by HPLC-eletrochemical detection (3, 21, 22). Briefly, the striatum was homogenized in 0.2 M perchloric acid containing 3,4-dihydroxybenzylamine as an internal standard (10 mg wet weight of tissue per ml). The homogenate was centrifuged and a 20-μl aliquot of the supernatant was injected into the HPLC equipped with an ODS-C18 column. The mobile phase was comprised of 26 ml of acetonitrile, 21 ml of tetrahydrofuran and 960 ml of 0.15 M monochloroacetic acid (pH 3.0) containing 50 mg/l of EDTA and 200 mg/l of sodium octyl sulfate. The amount of DA, DOPAC and HVA were determined by comparison of peak height ratio of tissue sample with standards, and were expressed in nanograms per 100 mg of wet weight of tissue.
Each morphinan was administered 30 min before every injection of MPTP for last three days. Animals were sacrificed at 24 h after the last MPTP injection.

C57 BL/6 mice [3] = assay: Conditioned place preference (psychological dependence) following repeated administration of morphinans or PCP; type: in vivo; settings: 20 or 40 mg/kg i.p. (PCP 2.5 or 5 mg/kg); vs saline
Method: On day 14, the guillotine doors were raised. […] Data were analyzed between 0900 and 1700 hr.

LPS-treated mice [4] = assay: Hypokinesia induced by intrastriatal LPS; settings: 12 or 24 mg/kg, twice before bilateral intrastriatal LPS
MPTP-treated mice [5] = assay: Hypokinesia (reduction in locomotor activity) induced by MPTP; type: in vivo; settings: 12 or 24 mg/kg i.p. 30 min before MPTP (20 mg/kg/day x 7), last three days
MA-treated mice [6] = assay: MA-induced FRA-IR in the striatum; settings: morphinan 20 mg/kg i.p.; MA 1 mg/kg i.p./day x 7
Method: Therefore, brains were removed and used for immunocytochemical analysis at 18 h after the final cocaine/MA treatment. The coronal sections containing striatum were processed for FRA immunocytochemistry. […] The FRA antibody was used at 1:2,000 as the optimal dilution. The FRA-IR in the striatum was calculated using image analysis systems with a polaroid digital microscopic camera (Optimas version 6.2).

MA-treated mice [7] = assay: Methamphetamine (MA)-induced hyperthermia; type: in vivo; settings: 24 mg/kg; MA 7.5 mg/kg i.p. x 4 at 2-h intervals
Method: Rectal temperature was recorded at 40 min after each MA treatment. […] Mice were sacrificed at 3 days after final MA injection.
FIGS. 10A-10B show effect of morphinans on the methamphetamine (MA)-induced hyperthermia. Mice received i.p. injections of MA (four injections of 7.5 mg/kg each) at 2-h intervals under the ambient temperature of 22.0±0.5° C. Temperatures were recorded at 40 min after each MA treatment (Arrow=MA injection).

LPS-treated mice [8] = assay: Nigral TH-IR in LPS-treated mice; type: in vivo; settings: 24 mg/kg i.p.
Source text: FIGS. 8A-8B. […] Magnification=40×.
(§1) Control animals received striatal injection with PBS.

LPS-treated mice [9] = assay: Striatal dopamine and metabolites in LPS-treated mice; type: in vivo; settings: for Concentration DA in the striatum: 3 weeks after LPS
Source text: as §1
Mice were sacrificed at 3 weeks after LPS treatment.

MA-treated mice [10] = assay: MA-induced hyperlocomotion; type: in vivo; settings: morphinan 20 mg/kg i.p. 30 min before MA 1 mg/kg i.p./day x 7
Method: FIGS. 39A-39D show effect of morphinans on the MA-induced hyperactivity in the mice. Each morphinan (20 mg/kg, i.p.) was administered 30 minutes prior to MA (1 mg/kg, i.p.). All treatments were performed for 7 days.

MPTP-treated mice [11] = assay: Nigral tyrosine hydroxylase-like immunoreactivity in MPTP-treated mice; settings: 24 mg/kg i.p.
Method: as §2

MA-treated mice [12] = assay: Striatal dopamine and metabolites in MA-treated mice; type: in vivo; settings: for Concentration DA in the striatum: 3 days after final MA
Source text: Mice were sacrificed at 3 days after final MA injection.

cocaine-treated mice [13] = assay: Cocaine-induced Fos-related antigen-immunoreactivity (FRA-IR) in the striatum; settings: cocaine 5 mg/kg; morphinan 20 mg/kg i.p.
[14] = system: kainate or maximal electric shock; settings: kainate (24) or maximal electric shock (27); cited from earlier work
C57 BL/6 mice [15] = assay: Locomotor activity and locomotor pattern following repeated administration of morphinans or PCP; type: in vivo
MA-treated mice [16] = assay: Nigral TH-IR in MA-treated mice; settings: 24 mg/kg i.p.
MA-treated mice [17] = assay: Hypokinesia induced by MA; type: in vivo; settings: 12 and 24 mg/kg; 3 days after final MA
MA-treated mice [18] = assay: MA-induced behavioural sensitization; settings: morphinan 20 mg/kg i.p., last 3 days of wash-out (Ex. 3.12)
Method: Morphinans (20 mg/kg, i.p.) were administered last 3 days of wash-out period.

σ1 receptors = σ1 receptors (Homo sapiens, UniProt Q99720); settings: cited from earlier work
σ1 receptors, sequence (Q99720 whole entry): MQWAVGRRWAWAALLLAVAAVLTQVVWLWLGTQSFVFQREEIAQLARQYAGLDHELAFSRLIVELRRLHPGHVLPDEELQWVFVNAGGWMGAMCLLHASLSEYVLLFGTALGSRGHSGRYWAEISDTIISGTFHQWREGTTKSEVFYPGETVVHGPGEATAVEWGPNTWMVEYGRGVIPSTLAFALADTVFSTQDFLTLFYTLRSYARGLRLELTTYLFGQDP

With `COc1ccc2c(c1)[C@@]13CCCC[C@H]1[C@@H](C2)N(C)CC3` [DM, 3-methoxy-17-methylmorphinan, reference compound] the “effect on locomotor activity induced by low dose of cocaine” value (cocaine-treated mice [1]; cocaine 5 mg/kg i.p. x 7 days, morphinan 15 or 30 mg/kg (DF 20 mg/kg) i.p.) was “enhanced locomotor activity produced by a low dose of cocaine”, the “effect on hyperactivity induced by high dose of cocaine” value (cocaine-treated mice [1]; cocaine 20 mg/kg i.p. x 7 days, morphinan 15 or 30 mg/kg i.p. 30 min before) was “attenuated” and the “effect on MPTP-induced reductions in striatal DA, DOPAC and HVA” value (MPTP-treated mice [2]; 24 mg/kg pretreatment) was “significantly protected”. For the same compound, the “Concentration DOPAC in the striatum” value (MPTP-treated mice [2]; morphinan 12 (mg/kg) + MPTP) was 69 ± 9 ng/100 mg wet tissue, the “Concentration HVA in the striatum” value (MPTP-treated mice [2]; morphinan 12 (mg/kg) + MPTP) was 82 ± 9 ng/100 mg wet tissue and the “Concentration DA in the striatum” value (MPTP-treated mice [2]; morphinan 12 (mg/kg) + MPTP) was 520 ± 67 ng/100 mg wet tissue. For the same compound, the “Concentration DOPAC in the striatum” value (MPTP-treated mice [2]; morphinan 24 (mg/kg) + MPTP) was 85 ± 10^b ng/100 mg wet tissue, the “Concentration HVA in the striatum” value (MPTP-treated mice [2]; morphinan 24 (mg/kg) + MPTP) was 98 ± 11^b ng/100 mg wet tissue and the “Concentration DA in the striatum” value (MPTP-treated mice [2]; morphinan 24 (mg/kg) + MPTP) was 708 ± 82^b ng/100 mg wet tissue. The “conditioned place preference (CPP)” value (C57 BL/6 mice [3]) was “also produced CPP”, the “effect on LPS-induced decrease in locomotor activity” value (LPS-treated mice [4]) was “significantly prevented LPS-induced decrease in locomotor activity” and the “effect on MPTP-induced reduction in locomotor activity” value (MPTP-treated mice [5]) was “significantly prevented MPTP-induced reduction in locomotor activity”. The “effect on MA-induced FRA-IR in the striatum” value (MA-treated mice [6]) was “did not affect this induction of FRA-IR”, the “effect on MA-induced hyperthermia (rectal temperature)” value (MA-treated mice [7]) was “attenuated by all morphinans used in this study” and the “effect on LPS-induced reduction in nigral TH-positive cells” value (LPS-treated mice [8]) was “significantly attenuated the reduction in TH-positive cells”. For the same compound, the “effect on LPS-induced reductions in striatal DA, DOPAC and HVA” value (LPS-treated mice [9]; 24 mg/kg pretreatment) was “significantly protected”, the “Concentration DOPAC in the striatum” value (LPS-treated mice [9]; morphinan 12 (mg/kg) + LPS) was 68 ± 7 ng/100 mg wet tissue and the “Concentration HVA in the striatum” value (LPS-treated mice [9]; morphinan 12 (mg/kg) + LPS) was 82 ± 9 ng/100 mg wet tissue. For the same compound, the “Concentration DA in the striatum” value (LPS-treated mice [9]; morphinan 12 (mg/kg) + LPS, mean ± S.E.M., 8 animals) was 612 ± 76 ng/100 mg wet tissue, the “Concentration DOPAC in the striatum” value (LPS-treated mice [9]; morphinan 24 (mg/kg) + LPS) was 105 ± 12^b ng/100 mg wet tissue and the “Concentration HVA in the striatum” value (LPS-treated mice [9]; morphinan 24 (mg/kg) + LPS) was 98 ± 8^b ng/100 mg wet tissue. The “Concentration DA in the striatum” value (LPS-treated mice [9]; morphinan 24 (mg/kg) + LPS) was 892 ± 92^d ng/100 mg wet tissue, the “effect on MA-induced hyperlocomotion” value (MA-treated mice [10]) was “did not affect MA (1 mg/kg, i.p./day×7)-induced hyperactivity” and the “effect on MPTP-induced decrease in nigral TH-positive cells” value (MPTP-treated mice [11]) was “significantly attenuated the decrease in TH-positive cells”. The “effect on MA-induced reductions in striatal DA, DOPAC and HVA” value (MA-treated mice [12]; 24 mg/kg pretreatment) was “significantly protected”, the “Concentration DOPAC in the striatum” value (MA-treated mice [12]; morphinan 12 (mg/kg) + MA) was 83 ± 9 ng/100 mg wet tissue and the “Concentration HVA in the striatum” value (MA-treated mice [12]; morphinan 12 (mg/kg) + MA) was 82 ± 9 ng/100 mg wet tissue. For the same compound, the “Concentration DA in the striatum” value (MA-treated mice [12]; morphinan 12 (mg/kg) + MA, mean ± S.E.M., 8 animals) was 625 ± 74 ng/100 mg wet tissue, the “Concentration DOPAC in the striatum” value (MA-treated mice [12]; morphinan 24 (mg/kg) + MA) was 98 ± 11^b ng/100 mg wet tissue and the “Concentration HVA in the striatum” value (MA-treated mice [12]; morphinan 24 (mg/kg) + MA) was 94 ± 8^b ng/100 mg wet tissue. For the same compound, the “Concentration DA in the striatum” value (MA-treated mice [12]; morphinan 24 (mg/kg) + MA) was 782 ± 72^c ng/100 mg wet tissue, the “effect on cocaine-induced FRA-IR in the striatum” value (cocaine-treated mice [13]) was “Neither DM nor MM affects this induction of FRA-IR” and the anticonvulsant effect [14] was “exhibited anticonvulsant effects”. For the same compound, the “locomotor pattern (tracings)” value (C57 BL/6 mice [15]; 40 mg/kg i.p. (PCP 5 mg/kg), FIG. 3) was “produced marginal activity”, the “marginal activity (circling behaviour; absolute turn angular)” value (C57 BL/6 mice [15]; 20 or 40 mg/kg i.p./day x 7 (PCP 2.5 or 5 mg/kg), 3-min period, vs saline) was “significant increase in marginal activity” and the “locomotor activity (total distance moved)” value (C57 BL/6 mice [15]; 20 or 40 mg/kg i.p./day x 7 days, 30 min after final treatment, vs saline) was “significantly increased locomotor activity”. The “effect on MA-induced decrease in nigral TH-positive cells” value (MA-treated mice [16]) was “significantly attenuated the decrease in TH-positive cells”, the “effect on MA-induced reduction in locomotor activity” value (MA-treated mice [17]) was “significantly prevented MA-induced reduction in locomotor activity” and the “effect on MA-induced behavioural sensitization” value (MA-treated mice [18]) was “did not alter behavioural sensitization by MA”. The “affinity for σ1 receptors” value (σ1 receptors) was “high affinity ligands”.
